From patent publication US8394832B2, “Methods and compositions using immunomodulatory compounds for the treatment of immunodeficiency disorders” (Celgene Corporation, priority 2004, dated 2013)

What was measured:
[1] = system: B cells; assay: Morphological changes of activated B cells (phase contrast microscopy); assay type: cell-based, human; details: treated with compound and anti-IgM (FIG. 7B)
Method: (§1) Human buffy coat (50 ml) was diluted with 50 ml sterile PBS (Ca^++, Mg^++ free), and mixed gently. A 25 ml aliquot of diluted buffy coat was transferred to each 50 ml centrifuge tube, and Histopaque-1077 (14 ml, #1077-1, Sigma) was gently layered into the bottom of the tube. The sample was centrifuged at 2,000 rpm for 30 min at room temperature. The interface containing mononuclear cells was transferred into 50 ml centrifuge tube, and washed once with PBS (1200 rpm, 5 min). The supernatant was discarded. Cell pellet was resuspended in Miltenyi buffer. Anti-CD19^+ microbeads were added to the suspension (10^7 cells in 80 μl of buffer, 20 μl antibody beads for 10^7 cells) and incubated for 15 min at 4° C. Cell pellet was washed once and resuspended in 1 ml Miltenyi buffer. The cell suspension was added to the magnetic column, washed with 10 ml Miltenyi buffer in the column. CD19^+ cells are released by 1 ml Miltenyi Buffer without magnetic field. CD19^+ cells were washed twice with RPMI complete medium. B cells (2×10^5) were plated in 96 well plate.
B cells were treated with 1,3-dioxo-(2,6-dioxopiperidin-3-yl)-4-aminoisoindoline (FIG. 6) in presence of anti IgM, anti CD40 and IL-4 for 3 days. The images were captured using phase contrast microscopy with MetaMorph software.
Morphological changes also support IMiDs' costimulation of B cells to drive their proliferation. […]

[2] = system: HLA-DR; assay: FACS analysis of HLA-DR expression on B cells; assay type: cell-based, human
Method: as §1
B cells were treated with 1 μM 1,3-dioxo-(2,6-dioxopiperidin-3-yl)-4-aminoisoindoline in presence of LPS; CD40 ligand and IL-4; or BAFF for 3 days. The suspension of B cells was washed by PBS once, and incubated with FITC conjugated anti human CD40, PE conjugated anti human CD80, or PerCP-Cy5.5 conjugated anti human HLA-DR for 30 min in the dark. B cells were subject to FACS analysis using BD FACSAria (BD biosciences).
In addition to the suppression of IL-4 induced proliferation, CD40+IL-4 induced HLA-DR expression was also examined. B cells were treated by 1,3-dioxo-(2,6-dioxopiperidin-3-yl)-4-aminoisoindoline with CD40L+IL-4 for 72 hours, and the cell surface expression markers CD40 and HLA-DR were measured by FACS. […] In contrast, for the B cells that were treated with BAFF, 1,3-dioxo-(2,6-dioxopiperidin-3-yl)-4-aminoisoindoline increased CD40 expression by 60% and HLA-DR expression by 86% (FIG. 11F). The data are consistent with the previous observation that immunomodulatory compounds have no effect on CD40+IL-4 signaling.

[3] = system: IgE synthesis; assay: IgE ELISA of human PBMC treated with anti CD40 and IL-4 for three weeks; assay type: cell-based; details: 504 h, human PBMCs in presence of CD40+IL-4 for three weeks (FIGS. 11A and B), read-out: IC50 of inhibition of IgE synthesis
Method: Human PBMCs (1×10^6/ml) were treated with immunomodulatory compounds in presence of anti-CD40 (2 ug/ml) and IL-4 (40 ng/ml) for three weeks. Fifty microliter of supernatant was used for IgE ELISA, following the manufacturer's instruction. The absorbance was read by ELISA reader at OD=450 nm.
IL-4 is a unique signal for B cells to produce IgE during the immunoglobulin class switch. To assess whether immunomodulatory compounds can regulated IgE synthesis, 1,3-dioxo-(2,6-dioxopiperidin-3-yl)-4-aminoisoindoline or 1-oxo-(2,6-dioxopiperidin-3-yl)-4-aminoisoindoline was incubated with human PBMCs in presence of CD40+IL-4 for three weeks. […] (FIGS. 11A and B).
Treatment of PBMC: 200 μl of 1×10^6/ml human PBMC were plated in 96 well plate, and the cells were pretreated with IMiDs at indicated concentrations (60, 6, 0.6, 0.06, 0.006, 0.0006 uM) for 30 minutes. Anti CD40 (#AHS4002, Biosource, 2 μg/ml) and IL-4 (#200-04, Pepro Tech, 40 ng/ml) were added to each well. Human PBMC in presence of IMiDs, anti CD40 and IL-4 were incubated for three weeks. Fifty microliters of supernatant was subjected to IgE ELISA.
IgE ELISA: The IgE ELISA Quantitation Kit was purchased from Bethyl Laboratories, Inc. (#E80-108). […] The ELISA plate was read at OD=450 nm in ELISA plate reader.

[4] = system: B cells; assay: B cell proliferation by BrdU ELISA; assay type: cell-based, human; details: 3 days (FIG. 7A)
Method: as §1
B cells were pretreated with 1,3-dioxo-(2,6-dioxopiperidin-3-yl)-4-aminoisoindoline or 1-oxo-(2,6-dioxopiperidin-3-yl)-4-aminoisoindoline at the concentrations of 60 μM, 6 μM, 0.6 μM, 0.06 μM, 0.006 μM, and 0.0006 μM for 30 min, then were added 2 μg/ml of anti-IgM, 2 μg/ml of anti CD40, 40 ng/ml IL-4, 100 ng/ml of recombinant BAFF, and/or 0.5 μg/ml of LPS. B cells were typically treated with the immunomodulatory compound alone or in presence of one or more of above stimuli for 3 days. Stimulated B cells with or without the treatment with immunomodulatory compound were used for cell proliferation assay and cytokines analysis.
The crosslinking of B cell receptor antigen (“BCR”) is the primary signal for B cell activation in response to antigen, and is critical in initializing subsequent B cell activation, proliferation, and differentiation. To assess B cell activation, B cells were treated with 1,3-dioxo-(2,6-dioxopiperidin-3-yl)-4-aminoisoindoline or 1-oxo-(2,6-dioxopiperidin-3-yl)-4-aminoisoindoline in presence of stimuli for 3 days. 25 μl BrdU was added to 250 μl cell culture 24 hours before harvesting cells. B cells were dried at 60° C. after removal of labeling supernatant. 100 μl FixDenat solution was added to fix cells for 30 min at room temperature. FixDenat solution was removed by tapping plate, then 100 μl anti-BrdU-POD was added each well for 90 min, at room temperature, and the plate was washed three 3 times. 100 μl of substrate was added to plate for 10 min, then 100 μl stop solution was added. Absorbance was measured by using an ELISA microplate reader (Molecular Devices) at OD 450 nm. […]

Nc1cccc2c1C(=O)N(C1CCC(=O)NC1=O)C2=O (stereo not shown) [1,3-dioxo-(2,6-dioxopiperidin-3-yl)-4-aminoisoindoline]
morphological changes of B cells [1]: formed large aggregates | increase of HLA-DR expression ([2]; B cells treated with BAFF (FIG. 11F)): 86% | HLA-DR expression ([2]; B cells treated with BAFF or LPS, 1 μM, 3 days (FIG. 2B)): upregulated | CD40+IL-4 induced HLA-DR expression ([2]; B cells with CD40L+IL-4 for 72 hours (FIG. 11E)): no enhancement | IC50 [3]: 0.1 to 0.3 µM | B cell proliferation ([4]; combined with IgM (anti-IgM)): enhance | effect on B cell activation/proliferation ([4]; compound alone): minimal effect
